Test results as given in patent US20230091225A1, “Bifunctional chimeric heterocyclic compounds for targeted degradation of androgen receptors and use thereof” (HINOVA PHARMACEUTICALS INC., priority 2019, published 2023).
Like-named read-outs stand apart in the source and are kept apart here.

Tests used:
androgen receptor (AR) = molecular target: T1, androgen receptor (AR) (Homo sapiens, UniProt P10275); test: Degradation of androgen receptor (AR) protein in VCaP cells by ELISA; type: cell-based; details: for inhibition at 0.1 µM: 16 h, read-out: % degradation
T1 sequence (P10275 1-920): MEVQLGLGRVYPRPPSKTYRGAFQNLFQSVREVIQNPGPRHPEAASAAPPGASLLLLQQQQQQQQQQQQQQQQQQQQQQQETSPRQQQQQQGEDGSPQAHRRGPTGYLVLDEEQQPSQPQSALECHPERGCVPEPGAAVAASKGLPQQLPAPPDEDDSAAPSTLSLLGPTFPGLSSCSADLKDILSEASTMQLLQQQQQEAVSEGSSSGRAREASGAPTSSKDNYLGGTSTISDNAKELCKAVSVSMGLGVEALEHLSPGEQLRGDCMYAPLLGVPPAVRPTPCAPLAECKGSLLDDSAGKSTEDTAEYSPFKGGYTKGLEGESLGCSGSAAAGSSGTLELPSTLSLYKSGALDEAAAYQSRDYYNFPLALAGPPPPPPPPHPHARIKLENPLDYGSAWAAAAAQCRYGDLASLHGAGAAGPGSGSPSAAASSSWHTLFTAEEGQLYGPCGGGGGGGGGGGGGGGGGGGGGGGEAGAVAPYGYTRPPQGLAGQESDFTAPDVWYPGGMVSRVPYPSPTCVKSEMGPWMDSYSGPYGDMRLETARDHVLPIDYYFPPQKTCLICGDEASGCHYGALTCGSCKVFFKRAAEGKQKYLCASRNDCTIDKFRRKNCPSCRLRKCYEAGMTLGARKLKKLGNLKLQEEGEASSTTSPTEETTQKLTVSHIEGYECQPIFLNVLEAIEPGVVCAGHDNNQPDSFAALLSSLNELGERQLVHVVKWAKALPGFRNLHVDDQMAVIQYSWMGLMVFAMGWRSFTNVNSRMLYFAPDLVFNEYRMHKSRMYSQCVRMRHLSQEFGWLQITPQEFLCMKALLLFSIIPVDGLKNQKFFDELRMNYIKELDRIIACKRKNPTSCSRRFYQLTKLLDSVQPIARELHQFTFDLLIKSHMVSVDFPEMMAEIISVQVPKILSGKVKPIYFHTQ

LNCaP/AR cells = test: Inhibition of proliferation of LNCaP/AR prostate cancer cells (CCK-8); type: cell-based
[1] = proliferation of LNCap/AR cells, 6 days, CCK-8, read-out: IC50
[2] = percentage of degraded AR at 100 nM, VCaP cells, ELISA
[3] = 144 h, proliferation of LNCap/AR cells, 6 days, CCK-8, read-out: IC50

Compound	inhibition at 0.1 µM (androgen receptor (AR); [2]) [%]	IC50 (LNCaP/AR cells; [3]) [nM]	further results
(2R,4R)-1-((S)-2-(2-((5-((2-((1r,3r)-3-(4-cyano-3-(trifluoromethyl) phenoxy)-2,2,4,4-tetramethylcyclobutyl)-1-oxoisoindolin-5-yl)amino)phenyl)oxy) acetylamino)-3,3-dimethylbutyryl)-4-hydroxy-N-((R)-1-(4-(4-methylthiazol-5-yl)phenyl)ethyl)pyrrole-2-formamide [Compound 16]	–	–	% degradation (androgen receptor (AR)): C (key: A: >80%; B: 79%-50%; C: 49%-25%; D: <25%); IC50 (LNCaP/AR cells; [1]): < 100 nM
[2H]C([2H])([2H])N(C(=O)c1ccc(N2CCC(CN3CCN(c4cc5c(cc4F)C(=O)N(C4CCC(=O)NC4=O)C5)CC3)CC2)nc1)[C@H]1C(C)(C)[C@H](Oc2ccc(C#N)c(Cl)c2)C1(C)C (stereo partly shown) [Compound 216, N-((1r,3r)-3-(3-chloro-4-cyanophenoxy)-2,2,4,4-tetramethylcyclobutyl)-6-(4-((4-(2-(2,6-dioxopiperidin-3-yl)-6-fluoro-1-oxoisoindolin-5-yl)piperazin-1-yl)methyl)piperidin-1-yl)-N-(methyl-d3)nicotinamide]	> 80	100 to 500	–
Cc1ncsc1-c1ccc(C2(NC(=O)[C@H]3C[C@@H](O)CN3C(=O)[C@@H](NC(=O)COCCCCC#Cc3ccc(C(=O)N[C@H]4C(C)(C)[C@H](Oc5ccc(C#N)c(Br)c5)C4(C)C)cc3)C(C)(C)C)CC2)cc1 [Compound 9, (2R,4R)-1-((S)-2-(2-((6-(4-(((1R,3R)-3-(3-bromo-4-cyanophenoxy)-2,2,4,4-tetramethylcyclobutyl)carbamoyl)phenyl)hex-5-yn-1-yl)oxy)acetylamino)-3,3-dimethylbutyryl)-4-hydroxy-N-(1-(4-(4-methyl-5-yl)phenyl)cyclopropyl) pyrrolidine-2-carboxamide]	> 80	< 100	–
N#Cc1ccc(O[C@H]2CC[C@H](N3Cc4nc(N5CCC(OC6CCN(c7ccc8c(c7)C(=O)N(C7CCC(=O)NC7=O)C8=O)CC6)CC5)ccc4C3=O)CC2)cc1Cl (stereo partly shown) [Compound 60, 2-chloro-4-(((1r,4r)-4-(2-(4-((1-(2-(2,6-dioxopiperidin-3-yl)-1,3-dioxoisoindolin-5-yl)piperidine-4-yl)oxy)piperidin-1-yl)-5-oxo-5H-pyrrolo[3,4-b]pyridin-6(7H)-yl)cyclohexyl)oxy)benzonitrile]	< 25	> 1000	–
N#Cc1ccc(O[C@H]2CC[C@H](N3Cc4nc(N5CC[C@@H](CN6CCN(c7cc8c(cc7F)C(=O)N(C7CCC(=O)NC7=O)C8)CC6)C5)ccc4C3=O)CC2)cc1Cl (stereo partly shown) [Compound 55]	25 to 49	100 to 500	–
(2S,4R)-1-((S)-2-(4-(4-((2-((1r,3r)-3-(3-chloro-4-cyanophenoxy)-2,2,4,4-tetramethylcyclobutyl)-1-oxoisoindolin-5-yl)ethynyl)-1H-pyrazol-1-yl)butylamino)-3,3-dimethylbutanol)-4-hydroxy-N-((S)-1-(4-methylthiazol-5-yl)phenyl)ethyl)pyrrolidine-2-carboxamide [Compound 35]	–	–	% degradation (androgen receptor (AR)): B (key: A: >80%; B: 79%-50%; C: 49%-25%; D: <25%); IC50 (LNCaP/AR cells; [1]): < 100 nM
CC(=O)O[C@@H]1C[C@@H](C(=O)N[C@@H](C)c2ccc(-c3scnc3C)cc2)N(C(=O)[C@@H](NC(=O)CN2CCC(CN3CCN(c4ccc(C(=O)NC5C[C@@]6(C)O[C@]5(C)[C@@H]5C(=O)N(c7ccc(C#N)c(Cl)c7)C(=O)[C@@H]56)cn4)CC3)CC2)C(C)(C)C)C1 (stereo partly drawn) [Compound 17, (3R,5S)-1-((2S)-2-(2-(4-((4-(5-(((3aR,4R,7R,7aS)-2-(3-chloro-4-benzonitrile)-4,7-dimethyl-1,3-dioxooctahydro-1H-4,7-epoxyisoindolin-5-yl)carbamoyl) (pyridin-2-yl)piperazin-1-yl)methyl)piperidin-1-yl)acetylamino)-3,3-dimethylbutyryl)-5-(((S)-1-(4-(4-methylthiazol-5-yl)phenyl)ethyl)carbamoyl)pyrrolidin-3-yl acetate]	–	–	inhibition at 0.1 µM (androgen receptor (AR); VCaP): 50 to 79%; IC50 (LNCaP/AR cells; LNCaP/AR, 144 h): < 100 nM
N#Cc1ccc(O[C@H]2CC[C@H](N3Cc4nc(N5CCC(CN6CCN(c7cccc8c7C(=O)N(C7CCC(=O)NC7=O)C8=O)CC6)CC5)ccc4C3=O)CC2)cc1Cl (stereo partly shown) [Compound 217]	< 25	> 1000	–
